One test deals with B-Raf (Homo sapiens, UniProt P15056). Briefly: Luciferase-coupled chemiluminescence kinase assay (ATP consumption), B-Raf. Type of test: biochemical. The conditions noted are these: read-out: bRaf IC50. Put shortly:
(§1)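 Compound is first mixed with […] Raf enzyme in 20 mM Tris pH 7.5 containing 10 mM MgCl2, 0.03% TX-100 and 1 mM DTT (30 min, room temperature). ATP then starts a 3 h reaction, and unconsumed ATP is detected by chemiluminescence.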

For a further test, the target named is c-Raf (Homo sapiens, UniProt P04049). As to the kind of experiment: Luciferase-coupled chemiluminescence kinase assay (ATP consumption), c-Raf. Type of test: biochemical. Conditions: read-out: cRaf-1 IC50. The method, boiled down:
as §1

SMILES strings stand for the structures.

This is an account of results in patent publication US7846959B2, “Raf modulators and methods of use” (Exelixis, Inc., priority 2004, dated 2010).

Chain of c-Raf (P04049 whole entry): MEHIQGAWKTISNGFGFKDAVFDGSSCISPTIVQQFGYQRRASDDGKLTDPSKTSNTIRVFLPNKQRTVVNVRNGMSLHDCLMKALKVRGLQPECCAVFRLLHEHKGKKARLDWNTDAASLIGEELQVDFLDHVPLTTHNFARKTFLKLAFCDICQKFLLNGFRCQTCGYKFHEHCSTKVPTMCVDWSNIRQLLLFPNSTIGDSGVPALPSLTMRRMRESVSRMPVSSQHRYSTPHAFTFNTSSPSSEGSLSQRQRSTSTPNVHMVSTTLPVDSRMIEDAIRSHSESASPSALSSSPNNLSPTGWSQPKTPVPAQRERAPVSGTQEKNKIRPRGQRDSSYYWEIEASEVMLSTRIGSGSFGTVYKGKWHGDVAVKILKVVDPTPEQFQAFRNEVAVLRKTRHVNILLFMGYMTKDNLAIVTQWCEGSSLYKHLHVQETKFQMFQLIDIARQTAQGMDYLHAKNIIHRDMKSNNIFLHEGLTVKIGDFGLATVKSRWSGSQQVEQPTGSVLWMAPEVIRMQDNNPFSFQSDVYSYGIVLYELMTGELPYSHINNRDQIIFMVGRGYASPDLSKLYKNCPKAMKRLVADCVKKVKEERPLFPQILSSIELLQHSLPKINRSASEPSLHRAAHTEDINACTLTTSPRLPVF
Chain of B-Raf (P15056 whole entry): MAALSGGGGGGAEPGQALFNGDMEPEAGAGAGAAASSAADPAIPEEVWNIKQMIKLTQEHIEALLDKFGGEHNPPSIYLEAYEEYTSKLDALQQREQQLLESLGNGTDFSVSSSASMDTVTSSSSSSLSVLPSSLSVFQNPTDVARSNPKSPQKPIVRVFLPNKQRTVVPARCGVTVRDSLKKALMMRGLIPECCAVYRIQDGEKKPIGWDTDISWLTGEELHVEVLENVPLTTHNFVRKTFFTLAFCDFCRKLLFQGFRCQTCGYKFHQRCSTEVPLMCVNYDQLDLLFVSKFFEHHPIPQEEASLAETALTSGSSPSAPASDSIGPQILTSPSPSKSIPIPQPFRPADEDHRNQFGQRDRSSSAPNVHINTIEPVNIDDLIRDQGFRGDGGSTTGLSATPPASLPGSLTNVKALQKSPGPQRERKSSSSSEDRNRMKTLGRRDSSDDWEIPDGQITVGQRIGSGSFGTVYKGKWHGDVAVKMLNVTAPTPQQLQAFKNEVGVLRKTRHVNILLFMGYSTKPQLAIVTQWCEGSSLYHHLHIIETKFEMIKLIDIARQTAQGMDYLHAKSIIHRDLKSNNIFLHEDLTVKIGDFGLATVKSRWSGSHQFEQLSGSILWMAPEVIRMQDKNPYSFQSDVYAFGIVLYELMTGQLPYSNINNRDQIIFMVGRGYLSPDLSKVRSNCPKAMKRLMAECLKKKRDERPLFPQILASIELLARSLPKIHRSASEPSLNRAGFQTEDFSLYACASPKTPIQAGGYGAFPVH

Turning to `O=C(Nc1nc2cc(C3(O)c4ccccc4C(=O)N3Cc3ccccc3)ccc2[nH]1)OC1CCCCC1` (stereo not shown) [Entry 185, cyclohexyl {5-[1-hydroxy-3-oxo-2-(phenylmethyl)-2,3-dihydro-1H-isoindol-1-yl]-1H-benzimidazol-2-yl}carbamate], the IC50 on B-Raf and on c-Raf was 0.1 to 1 µM each time.
As to `O=C(Nc1nc2cc(C3(O)c4ccccc4C(=O)N3Cc3ccccc3)ccc2[nH]1)OCC1CCCO1` (stereo not shown) [Entry 186, tetrahydrofuran-2-ylmethyl {5-[1-hydroxy-3-oxo-2-(phenylmethyl)-2,3-dihydro-1H-isoindol-1-yl]-1H-benzimidazol-2-yl}carbamate], the IC50 on B-Raf and at c-Raf was under 0.1 µM throughout.
Consider `O=C(Nc1nc2cc(C3(O)c4ccccc4C(=O)N3Cc3ccccc3)ccc2[nH]1)OCC1CC1` (stereo not shown) [Entry 187, cyclopropylmethyl {5-[1-hydroxy-3-oxo-2-(phenylmethyl)-2,3-dihydro-1H-isoindol-1-yl]-1H-benzimidazol-2-yl}carbamate], for which the IC50 at B-Raf and at c-Raf was under 0.1 µM each time.
On to `O=C(Nc1nc2cc(C3(O)c4ccccc4C(=O)N3Cc3ccccc3)ccc2[nH]1)N1CCOCC1` (stereo not shown) [Entry 188, N-{5-[1-hydroxy-3-oxo-2-(phenylmethyl)-2,3-dihydro-1H-isoindol-1-yl]-1H-benzimidazol-2-yl}morpholine-4-carboxamide], for which the IC50 (commonly the concentration at which inhibition is half-maximal) lay in the range of 1 to 10 µM on B-Raf and 0.1 to 1 µM on c-Raf.
On the same counts, the results for `COC(=O)Nc1nc2cc(C3(O)c4ccccc4C(=O)N3CC3CCCC3)ccc2[nH]1` (stereo not shown) [Entry 189, methyl {5-[2-(cyclopentylmethyl)-1-hydroxy-3-oxo-2,3-dihydro-1H-isoindol-1-yl]-1H-benzimidazol-2-yl}carbamate] are under 0.1 µM and under 0.1 µM.
For `COC(=O)Nc1nc2cc(C3(O)c4ccccc4C(=O)N3c3cccc(C)c3C)ccc2[nH]1` (stereo not shown) [Entry 190, methyl {5-[2-(2,3-dimethylphenyl)-1-hydroxy-3-oxo-2,3-dihydro-1H-isoindol-1-yl]-1H-benzimidazol-2-yl}carbamate], in that order: under 0.1 µM and under 0.1 µM.
For `COC(=O)Nc1nc2cc(C3(O)c4ccccc4C(=O)N3C3CCc4ccccc43)ccc2[nH]1` (stereo not shown) [Entry 191, methyl {5-[2-(2,3-dihydro-1H-inden-1-yl)-1-hydroxy-3-oxo-2,3-dihydro-1H-isoindol-1-yl]-1H-benzimidazol-2-yl}carbamate], the IC50 at B-Raf and at c-Raf was under 0.1 µM each time.
Take `COC(=O)Nc1nc2cc(C3(O)c4ccccc4C(=O)N3[C@H](C(=O)OC)C3CCCCC3)ccc2[nH]1` (stereo partly drawn) [Entry 192, methyl (2S)-cyclohexyl[1-hydroxy-1-(2-{[(methyloxy)carbonyl]amino}-1H-benzimidazol-5-yl)-3-oxo-1,3-dihydro-2H-isoindol-2-yl]ethanoate]: the IC50 at B-Raf and on c-Raf was 1 to 10 µM each time.
In the case of `COC(=O)Nc1nc2cc(C3(O)c4ccccc4C(=O)N3c3c(F)cccc3F)ccc2[nH]1` (stereo not shown) [Entry 193, methyl {5-[2-(2,6-difluorophenyl)-1-hydroxy-3-oxo-2,3-dihydro-1H-isoindol-1-yl]-1H-benzimidazol-2-yl}carbamate], the 50% inhibitory concentration (IC50) on B-Raf and on c-Raf was under 0.1 µM throughout.
`COC(=O)Nc1nc2cc(C3(O)c4ccccc4C(=O)N3c3ccc(F)c(Cl)c3)ccc2[nH]1` (stereo not shown) [Entry 194, methyl {5-[2-(3-chloro-4-fluorophenyl)-1-hydroxy-3-oxo-2,3-dihydro-1H-isoindol-1-yl]-1H-benzimidazol-2-yl}carbamate]: the IC50 on B-Raf and on c-Raf was under 0.1 µM each time.
`C=CCCOC(=O)Nc1nc2cc(C3(O)c4ccccc4C(=O)N3Cc3ccccc3)ccc2[nH]1` (stereo not shown) [Entry 195, but-3-en-1-yl {5-[1-hydroxy-3-oxo-2-(phenylmethyl)-2,3-dihydro-1H-isoindol-1-yl]-1H-benzimidazol-2-yl}carbamate]: the IC50 at B-Raf and on c-Raf was under 0.1 µM each time.
